{"source": "patent EP0211354A2", "about": "“Nucleosides and their use as antineoplastic agents” (MERRELL DOW PHARMACEUTICALS INC., priority 1985, dated 1987)", "key": {"[1]": {"test_system": "Hela Cells", "assay": "Growth of Hela cells in culture (cell count after 72 hours)", "format": "cell-based", "protocol": "Hela cells (1 × 10⁵/35 mm dish) were plated and incubated at 37°C in a CO₂ (5%) incubator. Media containing different dilutions of MDL 27,069 were added after overnight incubation. At the end of 72 hours, the cells were collected by trypsinization and counted using a coulter counter. *All cells were killed."}, "[2]": {"test_system": "L1210 mouse leukemia", "assay": "Antitumor activity against L1210 mouse leukemia (survival time)", "format": "in vivo", "settings": "for CURES: cured = surviving more than 30 days", "protocol": "1 × 10⁵ L1210 leukemia cells per animal were injected i.p. on day 0. Treatment with the drug was started on day 1. The compound was dissolved in sterile water and administered i.p. at the doses indicated from day 1 to day 9 once daily. Therapeutic effect of the compound was determined by determining the survival time of the treated group in comparison with control group as follows: [formula] *Animals surviving for more than 30 days are considered cured."}, "[3]": {"settings": "0,01 mg/kg i.p. once daily day 1 to day 9"}, "[4]": {"settings": "0.25 mg/kg i.p. once daily day 1 to day 9"}, "[5]": {"settings": "0.5 mg/kg i.p. once daily day 1 to day 9"}, "[6]": {"settings": "1.0 mg/kg i.p. once daily day 1 to day 9"}}, "note": "Marks after values point to notes of the source that are not given here.", "data": [{"smiles": "Nc1ccn([C@@H]2O[C@H](CO)[C@@H](O)C2(F)F)c(=O)n1", "note": "[MDL 27,069, 2'-desoxy-2',2'-difluorocytidine]", "values": [{"measurement": "Cell Number", "setting": "[1]; 0.00062 μg/ml", "value": "2.0 X10^5"}, {"measurement": "Cell Number", "setting": "[1]; 0.00125 μg/ml", "value": "1.17 X10^5"}, {"measurement": "Cell Number", "setting": "[1]; 0.0025 μg/ml", "value": "0.51 X10^5"}, {"measurement": "Cell Number", "setting": "[1]; 0.005 μg/ml", "value": "0.36 X10^5"}, {"measurement": "Cell Number", "setting": "[1]; 0.01 μg/ml, *All cells were killed", "value": "0* X10^5"}, {"measurement": "inhibition at 0.00062 µg/mL", "setting": "[1]; Homo sapiens, 0.00062 μg/ml", "value": 48, "unit": "%"}, {"measurement": "inhibition at 0.00125 µg/mL", "setting": "[1]; Homo sapiens, 0.00125 μg/ml", "value": 70, "unit": "%"}, {"measurement": "inhibition at 0.0025 µg/mL", "setting": "[1]; Homo sapiens, 0.0025 μg/ml", "value": 87, "unit": "%"}, {"measurement": "inhibition at 0.005 µg/mL", "setting": "[1]; Homo sapiens, 0.005 μg/ml", "value": 91, "unit": "%"}, {"measurement": "inhibition at 0.01 µg/mL", "setting": "[1]; Homo sapiens, 0.01 μg/ml", "value": 100, "unit": "%"}, {"measurement": "MEAN SURVIVAL TIME", "setting": "[2]; [3]", "value": 13.25, "unit": "days"}, {"measurement": "o/o T/C", "setting": "[2]; [3]", "value": 189, "unit": "o/o"}, {"measurement": "CURES", "setting": "[2]; [3]", "value": "0/5"}, {"measurement": "MEAN SURVIVAL TIME", "setting": "[2]; [4]", "value": 13.40, "unit": "days"}, {"measurement": "o/o T/C", "setting": "[2]; [4]", "value": 191, "unit": "o/o"}, {"measurement": "CURES", "setting": "[2]; [4]", "value": "0/5"}, {"measurement": "o/o T/C", "setting": "[2]; [5]", "value": 249, "unit": "o/o"}, {"measurement": "CURES", "setting": "[2]; [5]", "value": "0/5"}, {"measurement": "MEAN SURVIVAL TIME", "setting": "[2]; [6]", "value": 20.0, "unit": "days"}, {"measurement": "o/o T/C", "setting": "[2]; [6]", "value": 286, "unit": "o/o"}, {"measurement": "CURES", "setting": "[2]; [6]", "value": "2/5*"}]}]}
